Results taken from publication PMC10237672, “Design and synthesis of novel anti-urease imidazothiazole derivatives with promising antibacterial activity against Helicobacter pylori” (PLOS ONE, 2023).
≈ marks a conversion by molar mass, not a printed value. Entries after “also recorded” stand apart in the source; their conditions may differ.

How the values were obtained:
H. pylori [1] = test: MIC against H. pylori, agar dilution method; type: cell-based, Helicobacter pylori; settings: Helicobacter pylori, ATCC43504; H. pylori ATCC 43504, agar dilution; read-out: MIC value against H. pylori ± SEM
H. pylori [2] = test: IC50 against H. pylori, micro broth dilution test; type: cell-based, Helicobacter pylori; settings: Helicobacter pylori, ATCC43504; H. pylori ATCC 43504, micro broth dilution, 72 h, OD 600 nm; read-out: IC50 value against H. pylori ± SEM
urease = target: T1, urease (Canavalia ensiformis, UniProt P07374); test: Enzyme kinetics study (Michaelis-Menten, Lineweaver-Burk) of urease inhibition; type: biochemical, Jack bean; settings: urea substrate 0.5-2.0 mM, inhibitor 0, 1.5, 3.0, 4.5 μM, Lineweaver-Burk plot
T1 construct: purchased Sigma Aldrich
Experimental: The type of enzyme inhibition was determined by Michaelis-Menten kinetics experiments. In order to investigate the potential mechanism of action of the potent compound 2c, detailed kinetics studies were conducted. The initial inhibitory efficacy rates of enzyme activity were measured at four different concentrations of substrate (0.5, 1.0, 1.5 and 2.0 mM) in the presence or absence of compound 2c (0, 1.5, 3.0, 4.5 μM) against urease.
Kinetics studies were performed to determine the mode of action of compound 2c. The mechanism of inhibition of urease was determined by enzyme kinetics using urea as a substrate. To determine the type of inhibition, analyze the effect of inhibitor on Vmax and Km, a Lineweaver-Burk plot (reciprocal of reaction rates […] and reciprocal of substrate concentrations […]) was used.
Different concentrations of inhibitor 2c and substrate were used to perform kinetics. Four concentrations (0, 1.5, 3.0, 4.5 μM) of inhibitor 2c and four concentrations (0.5, 1.0, 1.5 and 2.0 mM) of substrate were used.

Jack bean urease = target: T2, Jack bean urease (Canavalia ensiformis, UniProt P07374); test: biochemical; type: biochemical
T2 construct: purchased Sigma Aldrich
Experimental: Reaction mixture comprising 40 μL of buffer (K2HPO4: 10 mmol/L, urea: 100 mmol/L, […]: 10 mmol/L, EDTA: 1 /L mmol, pH = 8.2) and 5 U/mL enzyme (10 μL) were pre-incubated with 10 μL of synthesized compounds (1 mM) and substrate urea (1 mM) were incubated at room temperature in 96 well plate for half an hour. After the incubation at room temperature, absorbance was taken at specific wavelength (630 nm) employing a microplate reader (Bio-Tek, USA) with R1 and R2 reagents in each well. The reactions were measured in triplicate fashion. To calculate the inhibition percentage following equation was used.
Percentage inhibition = 100 –[tested compound/control compound] × 100.

T1 sequence (P07374 whole entry, looked up): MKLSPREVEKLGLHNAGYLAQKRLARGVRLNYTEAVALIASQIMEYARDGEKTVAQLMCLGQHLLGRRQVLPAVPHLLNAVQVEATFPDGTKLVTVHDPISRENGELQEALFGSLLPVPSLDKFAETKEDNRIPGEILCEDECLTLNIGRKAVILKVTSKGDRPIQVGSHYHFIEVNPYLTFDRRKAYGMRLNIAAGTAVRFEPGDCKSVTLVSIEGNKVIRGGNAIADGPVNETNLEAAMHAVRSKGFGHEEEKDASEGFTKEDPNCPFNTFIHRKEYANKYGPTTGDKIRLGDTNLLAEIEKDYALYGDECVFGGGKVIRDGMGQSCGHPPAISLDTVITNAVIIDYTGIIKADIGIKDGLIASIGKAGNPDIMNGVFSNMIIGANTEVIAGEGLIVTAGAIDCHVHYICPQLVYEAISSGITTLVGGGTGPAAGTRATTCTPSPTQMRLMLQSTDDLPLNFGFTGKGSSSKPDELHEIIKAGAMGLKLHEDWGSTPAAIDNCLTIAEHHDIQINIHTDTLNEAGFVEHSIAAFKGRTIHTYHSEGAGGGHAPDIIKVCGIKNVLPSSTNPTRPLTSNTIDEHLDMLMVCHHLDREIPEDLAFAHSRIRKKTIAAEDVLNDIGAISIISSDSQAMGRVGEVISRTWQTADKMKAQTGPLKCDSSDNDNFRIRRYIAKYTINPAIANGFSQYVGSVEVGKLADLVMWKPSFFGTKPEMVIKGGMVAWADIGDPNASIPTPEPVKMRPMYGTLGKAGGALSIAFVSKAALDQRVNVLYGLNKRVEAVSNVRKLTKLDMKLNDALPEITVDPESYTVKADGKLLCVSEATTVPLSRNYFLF
T2 sequence (P07374 whole entry, looked up): as above

## CCCS(=O)(=O)Oc1cccc(-c2nc3sccn3c2-c2cccc(S(C)(=O)=O)c2)c1 [Compound 2c, 3-(5-(3-(Methylsulfonyl)phenyl)imidazo[2,1-b]thiazol-6-yl)phenyl propane-1-sulfonate]
other
  melting point: 188 to 191 °C
H. pylori [1]
  MIC: 800 µM (≈ 381 µg/mL)
H. pylori [2]
  IC50: 281 ± 21 µM
urease
  type of urease inhibition: competitive inhibition; also recorded: competitive inhibitor
Jack bean urease
  IC50: 2.94 ± 0.05 µM
Jack bean urease; ratio of IC50 vs thiourea
  fold more potent than thiourea positive control (urease inhibition): 8 fold
